The text below walks through data of patent publication US20090221513A1, “Treatment of Neurodegenerative Disorders” (The Open University, priority 2005, published 2009).

Entries after “also recorded” stand apart in the source; their conditions may differ. Where a SMILES comes first, the peptide text is derived from it. [ ]: non-standard residue; d: D form. ξ: configuration not given here. ξR = N=C(N)NCCCC(N)C(=O)O; ξE = NC(CCC(=O)O)C(=O)O

The subject of assay [1] is chicks with Aβ1-42-induced amnesia. Description: passive avoidance task in chicks with Aβ-induced amnesia. Format: in vivo, chick. The settings on record: for protection against amyloid-beta induced memory loss: chick. The method, then:
FIG. 2 The effect of Ac-rER on memory in chicks with Aβ-induced amnesia. Chicks were injected 2×ip, 1 mg/100 gr bw, with Ac-rER, 6 hr and 12 hr pre-training. Aβ1-42 (2 μg/hemisphere) was injected ic 60 min pre-training. Chicks were tested 24 hr later. […] Each chick was trained and tested only once and differences between groups were tested for statistical significance by G-test (Sokal, and Rohlf, 1995).
Commercially obtained Ross Chunky eggs were incubated and hatched in brooders and held until 16±6 hours old. Chicks were placed in pairs in small aluminium pens. Following an equilibration period of an hour, the chicks were pretrained and trained essentially as described by Lossner and Rose (J. Neurochem. 41, 1357-1363 (1983), the contents of which are incorporated herein by reference). Pretraining involved three 10 s presentations of a small (2 mm diameter) white bead, at approximately 5 minute intervals. […] Two training techniques were used: “strong” and “weak” training. In both, 5 to 10 minutes after the last pre-training trial, chicks were trained by a 10 s presentation of a 4 mm diameter chrome bead, which had been dipped in the bitter-tasting methylanthranilate. Control chicks pecked at a water-coated or dry bead. In the “strong” version of the task, 100% methylanthranilate was used. In the “weak” version, 10% methylanthranilate was used. Chicks spontaneously pecked at the training or control beads within 20 s. Chicks that pecked at the bitter bead evinced a disgust reaction and would not normally peck at a similar, but dry bead for some hours subsequently. At various times following training chicks were tested, by offering them a dry 4 mm diameter chrome bead, followed 10 minutes later by a small (2 mm diameter) white bead, each for 20 to 30 s. Animals were tested by an experimenter blind as to which treatment each chick had received. […] Recall is calculated as a percent avoidance score (percentage of chicks which avoid the chrome bead) and as a discrimination score (percentage of chicks which avoid the chrome but peck at the white bead). […]

Assay [2] has as its system chicks with Anisomycin-induced amnesia. Nature of the assay: passive avoidance task, Anisomycin-induced amnesia in chicks. Format: in vivo, chick. The note with it: 8 μg/hemisphere ic pre-training; Anisomycin 125 nmol/hemisphere ic immediately post-training; tested 3 hr post training. The method, then: FIG. 7 Effect of Ac-rER on Anisomycin-induced amnesia in chicks. Chicks were injected ic with 8 μg/hemisphere of Ac-rER 60 min pre-training followed by ic injection of Anisomycin (125 nmol/hemisphere). immediately post-training. Controls were injected with saline. Chicks were tested 3 hr post training. […] Each chick was trained and tested only once and differences between groups were tested for statistical significance by G-test (Sokal, and Rohlf, 1995).
Commercially obtained Ross Chunky eggs were incubated and hatched in brooders and held until 16±6 hours old. Chicks were placed in pairs in small aluminium pens. Following an equilibration period of an hour, the chicks were pretrained and trained essentially as described by Lossner and Rose (J. Neurochem. 41, 1357-1363 (1983), the contents of which are incorporated herein by reference). Pretraining involved three 10 s presentations of a small (2 mm diameter) white bead, at approximately 5 minute intervals. […] Two training techniques were used: “strong” and “weak” training. […] Recall is calculated as a percent avoidance score (percentage of chicks which avoid the chrome bead) and as a discrimination score (percentage of chicks which avoid the chrome but peck at the white bead). […]

The subject of assay [3] is chicks trained on a weak training task. Description: one trial passive avoidance task, weak training (10% methylanthranilate), memory enhancement. The settings on record: for bio-activity as a cognitive enhancer: chick, D/L forms compared with RER; for memory retention (percent showing avoidance and discrimination), FIG. 1: weak aversive learning task, ic injection 60 min pre-training, saline control. Format: in vivo, chick. The method, then:
FIG. 1 The effect of different D/L forms of tripeptide as memory enhancers on weak memory. Chicks were injected ic with different D/L forms of tripeptide 60 min pre-training and tested 24 after. The control group received saline. […] Each chick was trained and tested only once and differences between groups were tested for statistical significance by G-test (Sokal, and Rohlf, 1995). Note that the G-test reflects group differences, and so there are no error bars on the figures.
FIG. 3 The effect of Ac-rER as memory enhancer in chicks trained on a weak training task (WT). Chicks were injected 2×ip injections, 1 mg/100 gr bw, 30 min and 6 hr pre-training and tested 24 hr later. The control groups received Ac-REr. […] Each chick was trained and tested only once and differences between groups were tested for statistical significance by G-test (Sokal, and Rohlf, 1995).
FIG. 5 Dose-dependence of the effect of Ac-rER in weak training. Chicks were injected ip with different doses of the Ac-rER 60 min pre-training and tested 24 after. The control group received saline. […] Each chick was trained and tested only once and differences between groups were tested for statistical significance by G-test (Sokal, and Rohlf, 1995).
FIG. 6 Stability of Ac-rER. Chicks were injected ip with 2 mg/100 g bw of Ac-rER 1, 2, 4, 6 and 12 hr before training and tested 24 hr later. The control group received saline. […] Each chick was trained and tested only once and differences between groups were tested for statistical significance by G-test (Sokal, and Rohlf, 1995). […]
Commercially obtained Ross Chunky eggs were incubated and hatched in brooders and held until 16±6 hours old. Chicks were placed in pairs in small aluminium pens. Following an equilibration period of an hour, the chicks were pretrained and trained essentially as described by Lossner and Rose (J. Neurochem. 41, 1357-1363 (1983), the contents of which are incorporated herein by reference). Pretraining involved three 10 s presentations of a small (2 mm diameter) white bead, at approximately 5 minute intervals. […] Two training techniques were used: “strong” and “weak” training. In both, 5 to 10 minutes after the last pre-training trial, chicks were trained by a 10 s presentation of a 4 mm diameter chrome bead, which had been dipped in the bitter-tasting methylanthranilate. Control chicks pecked at a water-coated or dry bead. In the “strong” version of the task, 100% methylanthranilate was used. In the “weak” version, 10% methylanthranilate was used. Chicks spontaneously pecked at the training or control beads within 20 s. Chicks that pecked at the bitter bead evinced a disgust reaction and would not normally peck at a similar, but dry bead for some hours subsequently. At various times following training chicks were tested, by offering them a dry 4 mm diameter chrome bead, followed 10 minutes later by a small (2 mm diameter) white bead, each for 20 to 30 s. Animals were tested by an experimenter blind as to which treatment each chick had received. Chicks are considered to remember the task if they avoid the chrome bead at test but peck at the white bead (discriminate), and to have forgotten it if they peck at both beads. Recall is calculated as a percent avoidance score (percentage of chicks which avoid the chrome bead) and as a discrimination score (percentage of chicks which avoid the chrome but peck at the white bead). […] Each chick was trained and tested only once and differences between groups tested for statistical significance by g-test described by Sokal and Rohlf (biometry: the Principles and Practice of Statistics in Biological Research (2nd edition), W H Freeman, New York (1981)), the contents of which are incorporated herein by reference. […]

Assay [4] concerns chicks with MK801-induced amnesia. Nature of the assay: passive avoidance task, MK801-induced amnesia in chicks. It is filed as in vivo, chick. The settings on record: 8 μg/hemisphere ic pre-training; MK801 0.020 mg/100 gr ip pre-training; tested 3 hr later. On the procedure:
FIG. 8 Effect of Ac-rER on MK801-induced amnesia. Chicks were injected ic with 8 μg/hemisphere of Ac-rER 60 min pre-training followed by ip injection of MK80 1 (0.020 mg/100 gr) pre-training. Controls were injected with saline. Chicks were tested 3 hr later. […] Each chick was trained and tested only once and differences between groups were tested for statistical significance by G-test (Sokal, and Rohlf, 1995).
Commercially obtained Ross Chunky eggs were incubated and hatched in brooders and held until 16±6 hours old. Chicks were placed in pairs in small aluminium pens. Following an equilibration period of an hour, the chicks were pretrained and trained essentially as described by Lossner and Rose (J. Neurochem. 41, 1357-1363 (1983), the contents of which are incorporated herein by reference). Pretraining involved three 10 s presentations of a small (2 mm diameter) white bead, at approximately 5 minute intervals. […] Two training techniques were used: “strong” and “weak” training. In both, 5 to 10 minutes after the last pre-training trial, chicks were trained by a 10 s presentation of a 4 mm diameter chrome bead, which had been dipped in the bitter-tasting methylanthranilate. […] Recall is calculated as a percent avoidance score (percentage of chicks which avoid the chrome bead) and as a discrimination score (percentage of chicks which avoid the chrome but peck at the white bead). […]

Assay [5] concerns chicks trained on a weak training task. The note with it: as described in WO02/083729; cited from earlier work.

For the compound `CC(=O)NC(CCCNC(=N)N)C(=O)NC(CCC(=O)O)C(=O)N[C@@H](CCCNC(=N)N)C(N)=O` (stereo partly drawn) [Ac-rER] (Ac-[ξR]-[ξE]-Arg-NH2), the “memory retention in Aβ-induced amnesia, FIG. 2” value in assay [1] (2×ip, 1 mg/100 gr bw, 6 hr and 12 hr pre-training, Aβ1-42 2 μg/hemisphere ic 60 min pre-training, tested 24 hr later) is “restores cognitive function and prevents memory loss”. For the same compound, the “protection against amyloid-beta induced memory loss” value is recorded as “protecting against amyloid-beta induced memory loss” in assay [1] and “protecting against amyloid-beta” in assay [1] (listed as Ac-RER). Moreover, in assay [2], the “effect on Anisomycin-induced amnesia, FIG. 7” value is “prevents either of these drugs from inducing amnesia”. In addition, the “performance on the weak training task, FIG. 3” value in assay [3] (2×ip injections, 1 mg/100 gr bw, 30 min and 6 hr pre-training, tested 24 hr later, control Ac-REr) is “significantly enhanced; also recorded: effective when injected peripherally”. Moreover, the entries for the “bio-activity as a cognitive enhancer” value in assay [3] and in assay [3] (listed as Ac-RER) were “active as a cognitive enhancer” and “effective as a cognitive enhancer”, respectively. In addition, the “dose sufficient to enhance memory, FIG. 5” value in assay [3] (ip 60 min pre-training, tested 24 after) came out at 1 mg per 100 g body weight. Moreover, the “time prior to training at which injection still acts as cognitive enhancer and neuroprotective agent” value in assay [3] (ip, FIGS. 2 and 3) is listed as “up to 12 hr”. Also, the “persistence of effect: time before training at which peptide is effective, FIG. 6” value in assay [3] (single ip injection of 1-2 mg/100 g bw, tested 24 hr later) is no more than 12 h. Besides, in assay [3] (single ip injection, weak training), the “time of administration before training at which peptide is most effective, FIG. 6” value is 4 h. Moreover, the “memory retention (percent showing avoidance and discrimination), FIG. 1” value in assay [3] (tested 24 after) is “enhances memory retention to the levels observed in the chick treated with the Ac-L/L/L/ form”; in assay [3] (tested 24 after, listed as Ac-ReR), “significant but lesser effects”. Moreover, the “effect on MK801-induced amnesia, FIG. 8” value in assay [4] is recorded as “prevents either of these drugs from inducing amnesia”.
As for Arg-Glu-Arg [RER], the “time prior to training at which injection is still effective (maximum), unprotected L-form” value in assay [5] is no more than 3 h.
